According to PubChem BioAssay AID179 (DTP/NCI, 2004):
Values joined by “and” are separate entries in the source; they are usually repeats but may differ in a detail not shown here. Identical values can stand only once. Active and inactive are the calls of the source.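 Rule for the calls: active = compounds giving half or more protection of infected cells from virus-caused growth loss, again on retest; inactive = the rest.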

Test system: CEM cells HIV-1 protection, formazan growth assay
Test: NCI AIDS Antiviral Assay
Details: for IC50: measured here: growth of uninfected CEM cells
Summary of the method: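 Human CEM cells, uninfected and HIV-1-infected, exposed to five drug concentrations; growth measured by soluble formazan assay and scored as percent protection from infection, with protecting compounds retested.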

SMILES | outcome | EC50 [µM] | IC50
COc1cccc(NC(=O)CC(=O)N2N=C(n3ccc4ccccc43)CC2c2ccccc2)c1 (stereo not drawn) | inactive | – | –
S=c1sscc1-c1ccccc1 | – | > 200 | 186 µM
COc1ccc(-c2c(C)oc3cc(OC(C)=O)ccc3c2=O)cc1 | – | > 200 | 30.9 µM
COc1cccc(C2=NC(C(C)C)CO2)c1OC (stereo not drawn) | – | > 525 | 316 µM
O=C1c2ccccc2C(=O)N1CC[P+](c1ccccc1)(c1ccccc1)c1ccccc1 | – | > 200 | > 200 µM and 107 µM
CC(NCCNC(C)C(=O)O)C(=O)O (stereo not drawn) | – | > 676 | > 676 µM
CCCCCCCCCCCCCCCC1=NCCN1C | – | > 45.7 | 35.5 µM
C=C(Br)N(CC)CC | – | > 251 | > 251 µM
CCC/C(Cl)=N\OC(=O)Nc1ccc(F)c([N+](=O)[O-])c1 | – | > 200 | 9.12 µM
O=C(O)C(O[N+](=O)[O-])c1ccccc1 (stereo not drawn) | inactive | – | –
CCOC(=O)c1cnc2c(ccc3ncccc32)c1OCC | – | > 120 | 72.4 µM
CCCCCCCCCCCCCCCC(=O)Nc1ccn(C2CCC(COP(=O)(O)OCC3OC(n4ccc(NC(=O)CCCCCCCCCCCCCCC)nc4=O)CC3OP(=O)(O)OCC3OC(n4ccc(NC(=O)CCCCCCCCCCCCCCC)nc4=O)CS3)O2)c(=O)n1 (stereo not drawn) | – | 1.1 | 83.2 µM
Cc1c(O)c(OC2OC(CO)C(O)C(O)C2O)cc2c1C=C[C@@H]1[C@@]2(C)C(=O)C[C@]2(C)[C@@H]([C@@](C)(O)C(=O)CCC(C)(C)O)[C@H](O)C[C@@]12C (stereo partly drawn) | – | > 200 | 93.3 µM
Cc1cn(C2CC(N=[N+]=[N-])C(CO)O2)c(=O)nc1N (stereo not drawn) | – | > 200 | > 200 µM
COc1ccc2c(c1)c1c(n2CCN2CCOCC2)-c2ccccc2CC1 | inactive | – | –
COc1ccc(/C=C2\N=C3Sc4c(nc[nH]c4=O)N3C2=O)cc1 | – | > 200 | > 200 µM
CS(=O)(=O)Oc1nn2c(OS(C)(=O)=O)nnc2s1 | – | > 200 | 28.8 µM

SMILES | outcome | EC50 [µM] | IC50
O=C1c2ccccc2-c2nnc(-c3ccc([N+](=O)[O-])cc3)cc21 | – | > 100 | > 100 µM
Cc1oc2cc(O)cc(O)c2c(=O)c1C | – | > 200 | 155 µM
O=C(CC(=O)N(C(=O)c1ccccc1)c1ccc(Cl)cc1)N/N=C\c1cc(N=Nc2ccccc2Cl)ccc1O | – | > 100 | > 100 µM
O=C(c1ccco1)N(C(=O)N1CCC(c2ccccc2)CC1)c1ccccc1 | – | > 200 | 29.5 µM
O=C1CN(/C=C(\c2ccccc2)S(=O)Cc2ccccc2)C(=S)N1 (stereo not drawn) | – | > 200 | > 200 µM
COc1ccc(C2ON(c3cccc(C)n3)CC=C2C)cc1 (stereo not drawn) | – | > 45.7 | > 45.7 µM
COc1cc2c(cc1OC)C(C(CBr)CBr)N(C1CCCC1)CC2 (stereo not drawn) | – | > 389 | > 389 µM
c1ccc(SC2CCCCO2)cc1 (stereo not drawn) | inactive | – | –
C=C(C)COC1CCCCO1 (stereo not drawn) | – | > 200 | 38 µM
O=C1c2ccccc2CCCC12OC2c1cccnc1 (stereo not drawn) | – | > 257 | 151 µM
c1ccc(COc2ncccc2C2SCCCS2)cc1 | – | > 200 | > 200 µM
COc1c(O)c2c(=O)cc(OC)c3c4c(OC)cc(=O)c5c(O)c(OC)c6c(c(c1CC(C)=C6OC(C)=O)c23)c54 | – | > 4.79 | 1.29 µM
CC(=O)O[C@H]1C#C/C=C\C#CC[C@@H]2C(=O)N[C@@H]12 | – | > 20 | 1.02 µM
NC(=S)/N=C/C1=C(O)CCCC1=O | – | > 200 | > 200 µM
COC(=O)c1ccc(CSc2ccc(N)cc2)cc1 | inactive | – | –
Cc1ccc(S(=O)(=O)N/N=C2/CCC(C(C)(C)C)CC2Br)cc1 (stereo not drawn) | – | > 200 | 30.9 µM
CC(C)[C@@H]1C=C(c2ccccc2)c2ccccc2C1C(C#N)(C#N)C(C)C (stereo partly drawn) | – | > 20.4 | > 20.4 µM
